Experimental data: patent US20250127800A1, “PYRIMIDINE OR PYRIDINE DERIVATIVE AND MEDICINAL USE THEREOF” (SIGNET THERAPEUTICS INC., priority 2021, published 2025)

Experiments:
[1] = target: T1, FAK (Homo sapiens (Human), UniProt Q05397); assay: Time-dependent FAK kinase inhibition activity test; assay type: biochemical
[2] = test system: activated YAP (non-p-YAP); assay: Western Blot of activated YAP in DGC organoid model; assay type: cell-based; details: 48 hours, dose-dependent
Protocol: (§1) Experimental procedures: Organoids were amplified in 6-well plates (7 Matrigel aliquots per well) for 2-3 days prior to evaluation. After passage, 1000 cells were inoculated in 5 μl Matrigel aliquot into each well containing 100 μl 50% L-WRN medium in a 96-well plate. Organoids were cultured for 24 hours, followed by addition of the compounds. Compounds were dissolved in DMSO as stock solution (with a final concentration of […]), which was then diluted with DMSO to 1000× concentration of the testing concentration. Culture medium was added to the stock solution to dilute to the testing concentration. The diluted solution was added to the culture plate. Once compound was added, culture medium was no longer added, and no further compound added. After the organoids were cultured for a specified number of days, the effects of compounds were evaluated by the following three methods, each using DMSO as negative control.
(§2) 2. After cell culture in accordance with the above procedure and culture with compounds for 48 hours, the cells were lysed, and proteins were extracted and tested by Western Blot. After gel imaging, gray values of protein bands were analyzed to investigate the effects of the compounds on phosphorylated FAK and activated YAP in the organoid model. (For detailed methods, please refer to Haisheng Zhang, Cancer Discovery, 2020).

[3] = test system: NUGC4 cells; assay: Cell proliferation inhibition, NUGC4 (CELL TITER-GLO); assay type: cell-based; details: Homo sapiens, NUGC-4, 96 h; NUGC4, 4 days
Protocol: (§3) • a. SNU-668 cells (catalog number: 00668, KCLB) or NUGC4 cells (catalog number: 0834, JCRB) were allowed to grow to 70%-80% confluence, the supernatant of the culture medium was pipetitted off, rinsed once with PBS and then pipetitted off; • b. To a 10 cm dish was added 1 mL of 0.25% trypsin, votexed to homogenity and then place into incubator for digestion for 2-3 min; • c. The culture dish is removed from the incubator added with 2-3 mL complete culture medium to terminate the digestion, pipetitted into a 15 mL centrifuge tube, and then centrifuged in centrifuge at 1000 rpm for 5 minutes; • d. The supernatant was pipetitted off, and the cells were resuspended in 1 mL of complete culture medium, and then counted; • e. 1000 cells were plated into each well of 96-well plate, and then cultured overnight in a cell incubator, 2) Cell Administration with Compounds • a. Compounds to be tested were dissolved and votexed to homogeneity; • b. Each compound was serielly diluted in 1:3 ratio from 1 mM stock solution to 9 gradient concentrations; • c. The plate seeded with cells was taken out from the incubator, pipetitted off culture medium, and then added slowly in each well with 100 μL fresh culture medium by multi-channel pipette. Wells are labeled by corresponding compounds and concentrations, and then gently added with 100 μL compound-containing culture medium along the well wall by multi-channel pipette; • d. After the addition to all wells, the plate was gently shaken to allow homogeneous spread of the compound, and then put back to the incubator, with time recorded;
(§4) 4 days after the addition of compounds, the culture medium was removed and mixed at 100 μL from each well with cell titer-glo testing liquid in 1:1 ratio. The mixture was incubated with shaking at room temperature for 10 min and then counted with Plate reader.

[4] = test system: FAK (p-FAK 397); assay: Western Blot of phosphorylated FAK in DGC organoid model; assay type: cell-based; details: 48 hours, dose-dependent
Protocol: as §1, §2

[5] = test system: SNU-668 cells; assay: Cell proliferation inhibition, SNU-668 (CELL TITER-GLO); assay type: cell-based; details: Homo sapiens, SNU668, 96 h; SNU-668, 4 days
Protocol: as §3, §4

[6] = target: T1, FAK; assay: In vitro enzymatic inhibitory activity, FAK kinase (HTRF KinEASE-TK); details: FAK kinase, enzyme pre-incubation 15 minutes at 25° C.
[7] = test system: diffuse-type gastric cancer (DGC) organoid; assay: Cell morphology in diffuse-type gastric cancer (DGC) organoid model; assay type: cell-based; details: 500 nM compound
Protocol: as §1
1. There was a difference in cell morphology between normal cells and the diffuse-type gastric cancer (DGC) organoid model. Normal organoids have hollow spheroid shape, while organoids of diffuse-type gastric cancer have solid grape-like irregular shape. Therefore, the observations of the effect of drugs on cell morphology may be one of the important characteristics for evaluating drug efficacy.

[8] = In vivo pharmacokinetic evaluation in SD rats, gavage; details: rat, plasma, po, male SD rats, 5 mg/kg
Protocol: Three male SD rats were administered with compounds in a single dose of 5 mg/kg or 3 mg/kg by gavage, and blood samples were collected before administration and at 0.25, 0.5, 1, 2, 4, 6, 8, and 24 h after administration.
Preparation of solutions of compounds to be dosed at 5 mg/kg: 5.5 mg compound (converted based on purity) was accurately weighed and added to 0.55 mL of DMSO. Clear solutions were obtained after stirring and sonication. 0.5 mL of each of the above solutions was added with 1 mL of Solutol, stirred for 1 minute; and then added with 8.5 mL of physiological saline and stirred for 1 minute, to obtain a clear solution at 0.5 mg/mL concentration.
Preparation of a solution of compounds to be dosed at 3 mg/kg: 3.6 mg compound (converted according to purity) was accurately weighed and added to 0.6 mL of DMSO. Clear solutions were obtained after stirring and sonication. 0.5 mL of each of the above solutions was added with 1 mL of Solutol and stirred for 1 minute; and then added with 8.5 mL of physiological saline and stirred for 1 minute, to obtain a clear solution at 0.3 mg/mL concentration.
Rats were administered the formulations prepared in step 2 by gavage at a dose of 10 mL/kg. The rats were fasted overnight before the administration and resumed feeding 4 hours after administration. Throughout the entire experiment, the animals were free to access drinking water.
The plasma concentration was measured using LC-MS/MS method.

[9] = target: YAP (non-p-YAP) (Homo sapiens (Human), UniProt P46937); assay: Western blot of YAP activity in SNU-668 cell line model; assay type: cell-based; details: SNU668, 24 hours
Protocol: • a. SNU-668 cells (catalog number: 00668, KCLB) were allowed to grow to 70%-80% confluence, the supernatant of the culture medium was pipetitted off, rinsed once with PBS and then pipetitted off; • b. To a 10 cm dish was added 2 mL trypsin, and digested in an incubator for 3-5 min; • c. The culture dish is removed from the incubator added with 5 mL 1640 medium (containing 10% FBS) to terminate the digestion, pipetitted into a 15 mL centrifuge tube, and then centrifuged in centrifuge at 1000 rpm for 5 minutes; • d. The supernatant was pipetitted off, added with 5 mL 1640 medium (containing 10% FBS). the cells were resuspended thoroughly and mix well, then counted; • e. 1.5×10^5 cells were seeded into each well of 12-well plate, and then cultured in a cell incubator for 24 h. 2) Cell Treatment with Compounds • a. Stock solutions of the compounds to be tested (1 mM) were diluted in DMSO, and blown and nixed several times to homogeneity; • b. The plate seeded with cells was taken out from the incubator, gently added in wells with 1 ul 1 mM stocks (1000× diluted) along the well wall, and then gently shaken immediately to homogeneity; • c. After the addition to all wells, the plate was gently shaken to allow homogeneous spread of the compound, and then put back to the incubator, with time recorded; Samples were collected after 24 hours.
• a. […]

T1 sequence (Q05397 whole entry, species assumed): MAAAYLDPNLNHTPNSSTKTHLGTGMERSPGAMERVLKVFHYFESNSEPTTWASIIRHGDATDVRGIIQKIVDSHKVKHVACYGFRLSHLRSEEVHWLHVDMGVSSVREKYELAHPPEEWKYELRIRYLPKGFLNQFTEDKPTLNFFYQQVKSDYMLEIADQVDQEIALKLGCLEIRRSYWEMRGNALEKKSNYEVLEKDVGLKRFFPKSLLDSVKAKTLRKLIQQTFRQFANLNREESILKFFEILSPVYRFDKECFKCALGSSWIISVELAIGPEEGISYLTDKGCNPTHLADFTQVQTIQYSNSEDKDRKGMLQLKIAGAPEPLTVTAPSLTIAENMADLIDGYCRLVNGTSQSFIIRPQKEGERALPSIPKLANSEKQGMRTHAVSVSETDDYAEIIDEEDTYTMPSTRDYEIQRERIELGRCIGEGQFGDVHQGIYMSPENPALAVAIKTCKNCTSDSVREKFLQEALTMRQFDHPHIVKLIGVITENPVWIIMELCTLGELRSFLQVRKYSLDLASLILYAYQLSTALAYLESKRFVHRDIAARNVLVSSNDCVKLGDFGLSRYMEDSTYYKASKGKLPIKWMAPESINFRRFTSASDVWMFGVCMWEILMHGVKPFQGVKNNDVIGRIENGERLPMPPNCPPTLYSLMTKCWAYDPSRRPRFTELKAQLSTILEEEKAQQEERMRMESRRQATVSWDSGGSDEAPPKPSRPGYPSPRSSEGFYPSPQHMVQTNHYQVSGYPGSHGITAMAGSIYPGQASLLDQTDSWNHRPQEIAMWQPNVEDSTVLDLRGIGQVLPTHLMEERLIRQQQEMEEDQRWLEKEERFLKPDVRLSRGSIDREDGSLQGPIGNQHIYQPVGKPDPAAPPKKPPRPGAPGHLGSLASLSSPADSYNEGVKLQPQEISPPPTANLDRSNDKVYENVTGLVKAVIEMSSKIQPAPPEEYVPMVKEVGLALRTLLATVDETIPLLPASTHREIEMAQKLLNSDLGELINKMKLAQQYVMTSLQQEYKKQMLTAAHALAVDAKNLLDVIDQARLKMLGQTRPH

SMILES | inhibition of activated YAP (non-p-YAP) [2] | IC50 [3] [nM] | inhibition of phosphorylation of FAK (p-FAK 397) [4] | IC50 [5] [nM] | IC50 [6] [nM] | also measured
C=CC(=O)N1CCCC(c2cccc(NCc3ccc(Nc4ncc(C(F)(F)F)c(Nc5ccccc5C(=O)NC)n4)cc3)c2)C1 (stereo not drawn) [Compound 6, 2-((2-((4-(((3-(1-acryloylpiperidin-3-yl)phenyl)amino)methyl)phenyl)amino)-5-(trifluoromethyl)pyrimidin-4-yl)amino)-N-methylbenzamide] | inhibit the activated YAP (non-p-YAP) | 20 | can inhibit the phosphorylation of FAK (p-FAK 397) | 50 | 2.68 | IC50 ([1]; enzyme pre-incubation 60 minutes at 25° C.): 0.662 nM; effective inhibition time on the kinase activity of FAK ([1]; pre-incubation 0, 15 and 60 minutes, compared to defactinib): longer effective inhibition time
C=CC(=O)N1CCCC1c1ccc(NCc2ccc(Nc3ncc(C(F)(F)F)c(Nc4ccccc4C(=O)NC)n3)cc2)cc1 (stereo not drawn) [Compound 9, 2-((2-((4-(((4-(1-acryloylpyrrolidin-2-yl)phenyl)amino)methyl)phenyl)amino)-5-(trifluoromethyl)pyrimidin-4-yl)amino)-N-methylbenzamide] | inhibit the activated YAP (non-p-YAP) | – | can inhibit the phosphorylation of FAK (p-FAK 397) | – | 3.71 | effect on cell morphology of DGC organoid [7]: significantly better effects than defactinib and IN-10018
C=CC(=O)N1CCCC(c2cccc(NCc3ccc(Nc4ncc(C(F)(F)F)c(Nc5ccccc5C(=O)NOC)n4)cc3)c2)C1 (stereo not drawn) [Compound 11, 2-((2-((4-(((3-(1-acryloylpiperidin-3-yl)phenyl)amino)methyl)phenyl)amino)-5-(trifluoromethyl)pyrimidin-4-yl)amino)-N-methoxybenzamide] | inhibit the activated YAP (non-p-YAP) | 90 | can inhibit the phosphorylation of FAK (p-FAK 397) | – | 5.67 | effect on cell morphology of DGC organoid [7]: significantly better effects than defactinib and IN-10018
C=CC(=O)N1CCCC(c2cccc(NCc3ccc(Nc4ncc(C(F)(F)F)c(Nc5cccc(F)c5C(=O)NC)n4)cc3)c2)C1 (stereo not drawn) [Compound 13, 2-((2-((4-(((3-(1-acryloylpiperidin-3-yl)phenyl)amino)methyl)phenyl)amino)-5-(trifluoromethyl)pyrimidin-4-yl)amino)-6-fluoro-N-methylbenzamide] | inhibit the activated YAP (non-p-YAP) | – | can inhibit the phosphorylation of FAK (p-FAK 397) | – | 19.8 | –
C=CC(=O)N1CCCC(c2cccc(NCc3ccc(Nc4ncc(C(F)(F)F)c(Nc5ccccc5S(=O)(=O)NC(C)C)n4)cc3)c2)C1 (stereo not drawn) [Compound 19, 2-((2-((4-(((3-(1-acryloylpiperidin-3-yl)phenyl)amino)methyl)phenyl)amino)-5-(trifluoromethyl)pyrimidin-4-yl)amino)-N-isopropylbenzenesulfonamide] | – | 90 | – | 210 | 10.4 | –
C=CC(=O)N1CCCC(c2cccc(NCc3ccc(Nc4ncc(C(F)(F)F)c(Nc5ccccc5S(=O)(=O)NC)n4)cc3)c2)C1 (stereo not drawn) [Compound 30, 2-((2-((4-(((3-(1-acryloylpiperidin-3-yl)phenyl)amino)methyl)phenyl)amino)-5-(trifluoromethyl)pyrimidin-4-yl)amino)-N-methylbenzenesulfonamide] | – | – | – | 90 | 3.75 | –
C#CC(=O)N1CCCC(c2cccc(NCc3ccc(Nc4ncc(C(F)(F)F)c(Nc5ccccc5C(=O)NC)n4)cc3)c2)C1 (stereo not drawn) [Compound 31] | – | 20 | – | < 10 | – | –
CNC(=O)c1ccc(Nc2ncc(C(F)(F)F)c(NCc3nccnc3N(C)S(C)(=O)=O)n2)cc1 [Defactinib, reference compound] | – | 1370 | – | – | – | AUC(0-inf) [8]: 0.441 µM·h; AUC(0-t) [8]: 0.424 µM·h; Cmax [8]: 99.5 nM; Tmax [8]: 4 h; half-life [8]: 1.2 h; inhibition of YAP activity (non-p-YAP) [9]: no inhibiting effect on YAP activity
COc1cc(C(=O)NC2CCN(C)CC2)c(F)cc1Nc1ncc(C(F)(F)F)c(Oc2cccc3c2C(=O)N(C)C3)n1 [IN10018, reference compound] | – | 3500 | – | 8400 | – | inhibition of YAP activity (non-p-YAP) [9]: no inhibiting effect on YAP activity
